Measurements as given in patent US20020086065A1, “Methods and compositions for the benefit of those suffering from polycystic ovary syndrome with chromium complexes” (priority 2000, published 2002).

Key:
[1] = rats, oral CrCl3 with the NSAID; cited from earlier work
women with PCOS = conditions: 14 women with PCOS, metformin 850 mg three times a day for 12 weeks; cited from earlier work
[2] = test system: subject presenting with PCOS; assay: Example: oral chromium picolinate/picolinic acid tablet in a subject presenting with PCOS; type: in vivo; conditions: daily dose of 1,000 μg of chromium
Protocol: A subject presenting with PCOS is identified. The subject is orally administered a tablet comprising chromium picolinate and picolinic acid at a ratio of 1:10 w/w at a daily dose of 1,000 μg of chromium. The tablet additionally comprises guaifenesin and ibuprofen in a pharmaceutically effective dose. Over the course of several weeks, a decrease in body mass and improved lipid profile is observed. The chromic picolinate sensitizes the subject's insulin and the symptoms of PCOS are reduced.

## CC(=O)Oc1ccccc1C(=O)O [aspirin]
[1]
  Chromium absorption following oral administration of CrCl3: facilitated

## CN(C)C(=N)N=C(N)N [metformin]
Women with PCOS
  17-hydroxy progesterone level: unchanged
  Body mass index (BMI): unchanged
  DHEAS level: unchanged
  Free testosterone level: unchanged
  androstenedione level: unchanged
  estradiol level: unchanged
  follicle-stimulating hormone (FSH) level: unchanged
  insulin secretion: not improved
  progesterone level: unchanged
  stimulated LH level: unchanged

## chromic picolinate
[2]
  effect on the subject's insulin: sensitizes
